{"source": "patent US20190010461A1", "about": "“HUMAN PLURIPOTENT STEM CELL-BASED SCREENING FOR SMOOTH MUSCLE CELL DIFFERENTIATION AND DISEASE” (Wisconsin Alumni Research Foundation, priority 2017, published 2019)", "key": {"[1]": {"tested_on": "primary human aortic SMCs (AoSMCs)", "description": "Scale bar=500 μm. […] Scale bar=100 μm. […] Data are represented as mean±SD."}, "[2]": {"tested_on": "MYH11 promoter-driven luciferase activity", "assay": "High-throughput screening, MYH11-Nluc-2A-Tom reporter human ES cell line, luciferase assay", "assay_type": "cell-based", "experimental": "FIGS. 1A-1C depict a schematic of high-throughput screening. […] The cells were passaged at day 4 and seeded on the 96-well plate for screening (2×10^6 cells/plate). After the reporter cell line was differentiated into mesoderm, small molecules were added to the cells from day 4 to day 14. FIG. 1B depicts the results of the screening in two batches. The luciferase assay results of individual small molecules were normalized to the average reads of all samples for each batch. The small molecules were selected for further analysis when the normalized reads were greater than “average+3×STDEV”. FIG. 1C depicts optimizing the concentration of the selected small molecules.\nThe cells were treated with 50 ng/ml FGF2 and 20 ng/ml BMP4 for another two days. The cells were passaged at day 4 and seeded on the 96-well plate for screening (2×10^6 cells/plate). The compounds were added from day 4-14. The Luciferase substrate (1000× dilution) (Nano-Glo Luciferase Assay system, Promega) was added to the medium for 15 min and luminescence was measured. An increase in luminescence indicates increased MYH11 expression, which is an indicator of the contractile smooth muscle cell phenotype. The Thomson custom stem cell Modulator 1, GSK-kinase inhibitor library, SellekChem Kinase inhibitor library, Analyticon NATx library, Prestwick Chemical Library, GlaxoSmithKline Protein Kinase Inhibitors, and part of Enamine Representative Diversity library were used for screening.\nHigh-throughput screening directs contractile smooth muscle cell differentiation—The construction of the MYH11-NLuc-tdTomato human ES cell reporter line generated by CRISPR/Cas9 technology is described in FIGS. 6A-6H. The reporter cell line was differentiated into mesoderm in E8BAC medium (Zhang et al., 2017) for two days and treated with FGF2 and BMP4 to further mature mesoderm for another two days. The cells were then passaged into a 96-well plate and exposed to small molecules for 10 days using a customized robotic workstation (FIG. 1A). The workstation was designed through collaboration with TECAN, which enables us to perform the automatic high-throughput screening at specific time point and in long-term. The medium were changed every other day and the small molecules were added during the feeding. […] We then validated these hits and optimized their concentration."}}, "data": [{"molecule": "Cc1cccc(-c2n[nH]cc2-c2ccc3ncccc3n2)n1", "note": "[RepSox, RepSox (SJN 2511)]", "values": [{"measurement": "contractile gene expression of AoSMCs", "setting": "[1]; 100 μM RepSox for three days versus DMSO", "value": "increase"}, {"measurement": "proliferation rate of AoSMCs", "setting": "[1]; 100 μM RepSox for two days versus DMSO", "value": "reduced"}, {"measurement": "contraction ability of AoSMCs", "setting": "[1]; 100 μM RepSox for two days, then 100 μM carbachol", "value": "without affecting"}, {"measurement": "cell migration rate of AoSMCs", "setting": "[1]; 100 μM RepSox versus DMSO", "value": "reduced"}, {"measurement": "effectiveness at promoting MYH11 expression among validated hits", "setting": "[2]; hits validated, concentration optimized", "value": "most effective"}, {"measurement": "promotes MYH11+ SMC differentiation (increased MYH11 promoter-driven luciferase activity)", "setting": "[2]; small molecules added day 4-14, selected when normalized reads > average+3×STDEV", "value": "promotes MYH11^+ SMC differentiation"}]}]}
